In ChEMBL document CHEMBL1641551, “Glycosylated nordihydroguaiaretic acids as anti-cancer agents” (Bioorg Med Chem Lett, 2011):
The source made the active and inactive calls. The calls are words filed in the database; no cut-off is given here.

Assays:
NCI/ADR-RES = assay: Cytotoxicity against human NCI/ADR-RES cells after 3 days by MTT assay; assay type: functional, cell-based
[1] = Cytotoxicity against human Hep3B cells after 3 days by MTT assay; assay type: functional, cell-based, Hep 3B2; conditions: 72 h
LNCaP = assay: Cytotoxicity against human LNCAP cells after 3 days by MTT assay; assay type: functional, cell-based; conditions: 72 h
HT-29 = assay: Cytotoxicity against human HT-29 cells after 3 days by MTT assay; assay type: functional, cell-based
MCF7 = assay: Cytotoxicity against human MCF7 cells after 3 days by MTT assay; assay type: functional, cell-based

Structure (SMILES) | IC50 (NCI/ADR-RES; 72 h) [µM] | IC50 [1] [µM] | IC50 (LNCaP) [µM] | IC50 (HT-29; HT-29, 72 h) [µM] | IC50 (MCF7; MCF7, 72 h) [µM] | Activity (NCI/ADR-RES) | Activity (HT-29) | Activity (MCF7)
COc1ccc(C[C@@H](C)[C@@H](C)Cc2ccc(OC)c(OC)c2)cc1OC [TERAMEPROCOL] | ≤ 10 | ≤ 10 | ≤ 10 | ≤ 10 | ≤ 10 |  |  | 
C[C@H](Cc1ccc(OCc2cn(CCO)nn2)c(OCc2cn(CCO)nn2)c1)[C@@H](C)Cc1ccc(OCc2cn(CCO)nn2)c(OCc2cn(CCO)nn2)c1 |  |  |  |  |  | inactive | inactive | inactive
C[C@H](Cc1ccc(OCc2cn(CCCCCCO[C@@H]3O[C@H](CO)[C@@H](O)[C@H](O)[C@H]3O)nn2)c(OCc2cn(CCCCCCO[C@@H]3O[C@H](CO)[C@@H](O)[C@H](O)[C@H]3O)nn2)c1)[C@@H](C)Cc1ccc(OCc2cn(CCCCCCO[C@@H]3O[C@H](CO)[C@@H](O)[C@H](O)[C@H]3O)nn2)c(OCc2cn(CCCCCCO[C@@H]3O[C@H](CO)[C@@H](O)[C@H](O)[C@H]3O)nn2)c1 |  | 83 |  |  |  | inactive | inactive | inactive
C[C@H](Cc1ccc(OCc2cn(CCO[C@@H]3O[C@H](CO)[C@H](O)[C@H](O)[C@H]3O)nn2)c(OCc2cn(CCO[C@@H]3O[C@H](CO)[C@H](O)[C@H](O)[C@H]3O)nn2)c1)[C@@H](C)Cc1ccc(OCc2cn(CCO[C@@H]3O[C@H](CO)[C@H](O)[C@H](O)[C@H]3O)nn2)c(OCc2cn(CCO[C@@H]3O[C@H](CO)[C@H](O)[C@H](O)[C@H]3O)nn2)c1 |  |  |  |  |  | inactive | inactive | inactive
C[C@H](Cc1ccc(OCc2cn(CCCCCCO)nn2)c(OCc2cn(CCCCCCO)nn2)c1)[C@@H](C)Cc1ccc(OCc2cn(CCCCCCO)nn2)c(OCc2cn(CCCCCCO)nn2)c1 |  |  |  |  |  | inactive | inactive | inactive
C[C@H](Cc1ccc(OCc2cn(CCCCCCO[C@@H]3O[C@H](CO)[C@H](O)[C@H](O)[C@H]3O)nn2)c(OCc2cn(CCCCCCO[C@@H]3O[C@H](CO)[C@H](O)[C@H](O)[C@H]3O)nn2)c1)[C@@H](C)Cc1ccc(OCc2cn(CCCCCCO[C@@H]3O[C@H](CO)[C@H](O)[C@H](O)[C@H]3O)nn2)c(OCc2cn(CCCCCCO[C@@H]3O[C@H](CO)[C@H](O)[C@H](O)[C@H]3O)nn2)c1 |  | 88 |  |  |  | inactive | inactive | inactive
